Experimental data reported in US6267962A, “Compositions and methods of treatment using peat derivatives” (C-P Technology Limited Partnership, priority 1997, dated 2001).

Tested on: psoriasis
Experiment: Psoriasis, patients 32 and 33
Type: in vivo, human
Conditions: patient 32; fluocinonide alone on other elbow
From the text: Patient 32 had suffered from psoriasis on their arms and elbows for over 10 years. A 10-30 Kd peat preparation was applied to one elbow twice daily for approximately nine months, with the occasional simultaneous application of fluocinonide cream. Fluocinonide cream alone was used on the other elbow.
Patient 33 had psoriasis that seemed to only manifest itself after an occurrence of strep throat. Their only successful treatment had been with chemotherapeutic agents.

Compound: CC(=O)OCC(=O)[C@@]12OC(C)(C)O[C@@H]1C[C@H]1[C@@H]3C[C@H](F)C4=CC(=O)C=C[C@]4(C)[C@@]3(F)[C@@H](O)C[C@@]12C [fluocinonide]
- psoriasis of elbow, skin lesions: no decrease in the skin lesions
